From ChEMBL document CHEMBL1149507, “Synthesis, structure, and bioactivity of N'-substituted benzylidene-3,4,5-trimethoxybenzohydrazide and 3-acetyl-2-substituted phenyl-5-(3,4,5-trimethoxyphenyl)-2,3-dihydro-1,3,4-oxadiazole derivatives” (Bioorg Med Chem Lett, 2006)

Tests used:
BGC-823 [1] = assay: Antiproliferative activity against human BGC823 cell line at 5 uM by MTT assay; assay type: functional
PC-3 [2] = assay: Antiproliferative activity against human PC3 cell line at 1 uM by MTT assay; assay type: functional
PC-3 [3] = assay: Antiproliferative activity against human PC3 cell line at 5 uM by MTT assay; assay type: functional
BGC-823 [4] = assay: Antiproliferative activity against human BGC823 cell line at 1 uM by MTT assay; assay type: functional
Bcap37 [5] = assay: Antiproliferative activity against human Bcap37 cell line at 1 uM by MTT assay; assay type: functional
Bcap37 [6] = assay: Antiproliferative activity against human Bcap37 cell line at 5 uM by MTT assay; assay type: functional
PC-3 [7] = assay: Antiproliferative activity against human PC3 cell line by MTT assay; assay type: functional, cell-based

IC50 (PC-3 [7]) | SMILES | inhibition at 5 µM (BGC-823 [1]) | inhibition at 1 µM (PC-3 [2]) | inhibition at 5 µM (PC-3 [3]) | inhibition at 1 µM (BGC-823 [4]) | inhibition at 1 µM (Bcap37 [5]) | inhibition at 5 µM (Bcap37 [6])
 | COc1cc(C(=O)N/N=C/c2ccc(C(F)(F)F)cc2)cc(OC)c1OC | 56.3% | 59.9% | 61.6% | 47.4% | 61.8% | 65.6%
 | COc1ccc(OC)c(/C=N/NC(=O)c2cc(OC)c(OC)c(OC)c2)c1 | 10.1% | 30.9% | 51.7% | 0.1% | 0% | 0%
 | COc1cc(C(=O)N/N=C/c2ccc(Cl)c(Cl)c2)cc(OC)c1OC | 32.7% | 13.5% | 31.6% | 29.6% | 0.1% | 0.6%
1700 nM | COc1cc(C2=NN(C(C)=O)C(c3cc(Cl)cc(Cl)c3)O2)cc(OC)c1OC (configuration not stated) | 6.6% | 52.7% | 93.9% | 0% | -1.1% | 1.3%
 | COc1cc(C(=O)N/N=C/c2ccc(F)c(F)c2)cc(OC)c1OC | 51.9% | 35.1% | 43.7% | 33.1% | 58.5% | 68.2%
 | COc1cc(C2=NN(C(C)=O)C(c3cc(OC)c(OC)c(OC)c3)O2)cc(OC)c1OC (configuration not stated) | -1.4% | -1.8% | 0.1% | -1.8% | 5.1% | 5.4%
 | COc1cc(C(=O)N/N=C/c2ccc(F)cc2)cc(OC)c1OC | 61.1% | 76% | 82.8% | 50.9% | 50.2% | 55.5%
 | COc1cc(C(=O)N/N=C/c2cccc(F)c2)cc(OC)c1OC | 44.8% | 53.5% | 64.1% | 13.6% | 38% | 49%
 | COc1ccc(/C=N/NC(=O)c2cc(OC)c(OC)c(OC)c2)c(OC)c1 | 3.6% | 10% | 22.2% | -6.9% | -3% | -0.1%
 | COc1cc(C2=NN(C(C)=O)C(c3cccc(C(F)(F)F)c3)O2)cc(OC)c1OC (configuration not stated) | 41.1% | 30.1% | 43.6% | 27.9% | 10.1% | 35.5%
 | COc1cc(C(=O)N/N=C/c2cc(Cl)cc(Cl)c2)cc(OC)c1OC | 9.2% | 22.1% | 46.3% | -7.5% | -5.4% | 3.6%
 | COc1cc(C2=NN(C(C)=O)C(c3ccc(Cl)c([N+](=O)[O-])c3)O2)cc(OC)c1OC (configuration not stated) | 0% | 43.3% | 61.4% | -2.3% | -2.9% | 1%
 | COc1ccc(OC)c(C2OC(c3cc(OC)c(OC)c(OC)c3)=NN2C(C)=O)c1 (configuration not stated) | 18.2% | 37.2% | 43.2% | 0.4% | -3.8% | 2.3%
 | COc1cc(C2=NN(C(C)=O)C(c3ccc(F)c(F)c3)O2)cc(OC)c1OC (configuration not stated) | 21.6% | 35.5% | 46.9% | 18.3% | -1.3% | 2.3%
 | COc1cc(C2=NN(C(C)=O)C(c3c(Cl)cccc3Cl)O2)cc(OC)c1OC (configuration not stated) | 15.9% | 5.1% | -2.2% | -1.4% | 9.3% | 45.8%
 | COc1cc(C(=O)N/N=C/c2ccccc2C(F)(F)F)cc(OC)c1OC | 35.6% | 45% | 52.9% | 22.1% | 56.8% | 80%
 | COc1cc(C(=O)N/N=C/c2ccc(Cl)c([N+](=O)[O-])c2)cc(OC)c1OC | 2.3% | 32.1% | 42.3% | -5.8% | -4.4% | 9.6%
 | COc1cc(C2=NN(C(C)=O)C(c3cccc(OC)c3OC)O2)cc(OC)c1OC (configuration not stated) | 17.5% | 35% | 58.2% | 3.8% | 0.1% | 2.8%
 | COc1cc(C2=NN(C(C)=O)C(c3ccc(C(F)(F)F)cc3)O2)cc(OC)c1OC (configuration not stated) | 3.4% | -11% | -0.7% | 4.2% | -3.5% | 14.2%
 | COc1cc(C2=NN(C(C)=O)C(c3ccccc3F)O2)cc(OC)c1OC (configuration not stated) | 32.8% | 13.5% | 31.6% | 29.6% | -1.5% | -2%
 | COc1cc(/C=N/NC(=O)c2cc(OC)c(OC)c(OC)c2)cc(OC)c1OC | 22.9% | 8.5% | 48.3% | -5% | 11.8% | 13.6%
 | COc1cc(C(=O)N/N=C/c2ccccc2F)cc(OC)c1OC | 76.5% | 70.6% | 81.8% | 51.6% | 58.9% | 81.8%
 | COc1cc(C2=NN(C(C)=O)C(c3ccc(Cl)c(Cl)c3)O2)cc(OC)c1OC (configuration not stated) | 3.1% | 28.1% | 26.1% | -0.8% | -3.2% | 0%
 | COc1cc(C(=O)N/N=C/c2cccc(C(F)(F)F)c2)cc(OC)c1OC | 33.8% | 51% | 79.8% | 17.7% | 8.3% | 15.5%
 | COc1cc(C(=O)N/N=C/c2c(Cl)cccc2Cl)cc(OC)c1OC | 27.8% | 43% | 52.1% | 0.9% | -7.2% | 2.9%
 | COc1cc(C2=NN(C(C)=O)C(c3cccc(F)c3)O2)cc(OC)c1OC (configuration not stated) | 37.7% | 16.5% | 43.5% | 14.7% | 14% | 23.8%
 | COc1cc(C2=NN(C(C)=O)C(c3ccc(F)cc3)O2)cc(OC)c1OC (configuration not stated) | 13.3% | 0% | 0.1% | -0.4% | -1.4% | -0.1%
300 nM | COc1ccc(C2OC(c3cc(OC)c(OC)c(OC)c3)=NN2C(C)=O)c(OC)c1 (configuration not stated) | -3.1% | 69.5% | 92% | 6.3% | -0.3% | 2.5%
 | COc1cccc(/C=N/NC(=O)c2cc(OC)c(OC)c(OC)c2)c1OC | 14.2% | 53.2% | 67% | -0.1% | -2.3% | 12.3%
 | COc1cc(C2=NN(C(C)=O)C(c3ccccc3C(F)(F)F)O2)cc(OC)c1OC (configuration not stated) | 34.8% | -11% | 15.2% | 31.8% | -1.2% | 16.2%
